This is an account of results in paper PMC6522510 (Nature Communications, 2019).

Among the test systems are CHRF288-11; CMK; CMS; M07e; ML-2; MOLM-13; MV4-11; U937.
Common to all, as to set-up: species or system AML cell lines (8); Primary HTS, single concentration about 10 uM, Cell Titer Glo viability; log10 luminescence, per cent inhibition relative to cycloheximide control
Common to all, as to conditions: 72 h, relative to cycloheximide control, log10 luminescence, inhibitor
(In ATP-based viability assays light output follows the ATP content of the culture.)

Where a name gives a salt, the structure may show the parent alone. Read-outs that look alike come from different tables or passages of the source.

In the case of `C[C@H](CS)C(=O)N1CCC[C@H]1C(=O)O` [SJ000286908-11, CAPTOPRIL], the CHRF288-11 %inh with CHRF288-11 (CHRF288-11 %inh, 10 µM) was -3.474%. Further, the CMK %inh in the test with CMK (CMK %inh, 10 µM) was -6.202%. For the same compound, the CMS %inh in the test on CMS (CMS %inh, 10 µM) is -1.329%. Besides, the M07e %inh in the test with M07e (M07e %inh, 10 µM) amounted to 0.3888%. Besides, the ML-2 %inh in the test with ML-2 (ML-2 %inh, 10 µM) was -1.011%. The MOLM-13 %inh with MOLM-13 (MOLM-13 %inh, 10 µM) was determined as 1.337%. In the test on MV4-11 (MV4-11 %inh, 10 µM), the MV4-11 %inh is -2.697%. In addition, the U937 %inh in the test with U937 (U937 %inh, 10 µM) is listed as -18.23%.
As for `CN(C)CCCn1c(-c2nonc2N)nc2cnccc21` [SJ000573146-1, NB100580-138A1], in the test with CHRF288-11, the CHRF288-11 %inh was -1.122%. Besides, the CMK %inh with CMK came to 9.262%. For the same compound, in the test with CMS, the CMS %inh is -2.565%. Moreover, in the test on M07e, the M07e %inh is listed as -3.074%. Further, in the test with ML-2, the ML-2 %inh was -0.381%. In addition, the MOLM-13 %inh with MOLM-13 is -2.29%. Further, the MV4-11 %inh in the test with MV4-11 was -1.385%. In the test with U937, the U937 %inh came out at 0.1912%.
For `COc1ccc(OC)c(C(O)CNC(=O)CN)c1` (centres unmarked) [SJ000285975-4, MIDODRINE HYDROCHLORIDE], the CHRF288-11 %inh in the test with CHRF288-11 is recorded as 5.586%. The CMK %inh in the test with CMK is reported as -2.727%. Further, in the test on CMS, the CMS %inh was -2.587%. In addition, in the test with M07e, the M07e %inh is 0.8303%. The ML-2 %inh in the test with ML-2 is reported as 3.423%. In addition, the MOLM-13 %inh in the test with MOLM-13 was -0.9656%. For the same compound, the MV4-11 %inh in the test with MV4-11 is reported as 0.5881%. Further, in the test on U937, the U937 %inh is recorded as -2.394%.
For `O=C(Nc1n[nH]c2nc(-c3ccco3)ccc12)C1CC1` [SJ000573271-1, VB100064-193A1], the CHRF288-11 %inh in the test with CHRF288-11 was 7.062%. In addition, the CMK %inh in the test with CMK is given as -3.194%. Moreover, the CMS %inh in the test with CMS is 0.8699%. Besides, the M07e %inh with M07e is recorded as -1.707%. Also, the ML-2 %inh in the test with ML-2 was -0.1888%. The MOLM-13 %inh in the test with MOLM-13 is reported as 1.202%. Further, the MV4-11 %inh with MV4-11 is recorded as -0.2919%. Besides, the U937 %inh in the test on U937 is reported as -4.198%.
Consider `O=c1c(Oc2ccc(F)cc2F)cc2cnc(NC3CCOCC3)nc2n1C1CC1` [SJ000581039-1], for which the CHRF288-11 %inh in the test on CHRF288-11 is 6.117%. Also, the CMK %inh in the test with CMK amounted to 4.979%. Also, the CMS %inh with CMS turned out to be 3.291%. In addition, in the test with M07e, the M07e %inh is listed as 4.212%. In the test on ML-2, the ML-2 %inh is 0.3273%. In the test with MOLM-13, the MOLM-13 %inh was determined as 0.2345%. In the test on MV4-11, the MV4-11 %inh is reported as 3.055%. In addition, the U937 %inh in the test on U937 was -0.2909%.
In the case of `O=C1NC(=NCCc2ccc(F)cc2)S/C1=C\c1ccc2ncccc2c1` [SJ000580954-1], the CHRF288-11 %inh in the test with CHRF288-11 is listed as -1.783%. Moreover, the CMK %inh in the test on CMK is given as 4.249%. For the same compound, the CMS %inh in the test on CMS was -3.568%. Also, the M07e %inh in the test with M07e was -2.647%. In addition, the ML-2 %inh in the test with ML-2 is 0.5359%. Also, in the test on MOLM-13, the MOLM-13 %inh was found to be 4.197%. Also, in the test with MV4-11, the MV4-11 %inh is reported as -0.3593%. Further, the U937 %inh in the test with U937 is reported as 1.346%.
As for `C[C@]12CCC(=O)C=C1CC[C@@H]1[C@@H]2C(=O)C[C@@]2(C)[C@H]1CC[C@]2(O)C(=O)CO` [SJ000287023-7, CORTISONE], the CHRF288-11 %inh with CHRF288-11 stood at 8.551%. The CMK %inh with CMK is on record as -2.132%. In addition, the CMS %inh in the test with CMS is -0.2521%. Besides, the M07e %inh in the test on M07e was -0.4313%. Further, the ML-2 %inh in the test on ML-2 is given as -0.1775%. For the same compound, the MOLM-13 %inh in the test with MOLM-13 was -2.413%. In addition, in the test on MV4-11, the MV4-11 %inh is listed as -0.1807%. Also, the U937 %inh in the test with U937 was -1.735%.
Regarding `CCn1c(-c2nonc2N)nc2cncc(C(=O)N3CCNCC3)c21` [SJ000573047-1, TP100582-069A1], the CHRF288-11 %inh in the test on CHRF288-11 is on record as -1.797%. In addition, the CMK %inh in the test on CMK is on record as -1.515%. Moreover, the CMS %inh in the test with CMS is 1.245%. Moreover, the M07e %inh in the test on M07e was 4.058%. In addition, the ML-2 %inh in the test with ML-2 was 1.727%. Besides, in the test with MOLM-13, the MOLM-13 %inh came to 0.2835%. In addition, the MV4-11 %inh in the test on MV4-11 stood at 2.106%. In addition, the U937 %inh with U937 came out at 1.348%.
With `CN(C)C(=O)Oc1ccc[n+](C)c1` [SJ000286222-6, PYRIDOSTIGMINE BROMIDE], the CHRF288-11 %inh in the test on CHRF288-11 is -1.775%. In the test with CMK, the CMK %inh is on record as -7.252%. Further, the CMS %inh in the test on CMS is given as -3.618%. Also, in the test with M07e, the M07e %inh was 2.078%. Moreover, in the test on ML-2, the ML-2 %inh was 1.797%. Also, the MOLM-13 %inh with MOLM-13 is -2.128%. Moreover, the MV4-11 %inh with MV4-11 was -1.282%. Moreover, in the test on U937, the U937 %inh is 1.718%.
Turning to `CCCCC(=O)N(Cc1ccc(-c2ccccc2-c2nnn[nH]2)cc1)[C@H](C(=O)O)C(C)C` [SJ000286083-3], the CHRF288-11 %inh in the test on CHRF288-11 (CHRF288-11 %inh, 10 µM) is on record as 2.31%. Besides, the CMK %inh with CMK (CMK %inh, 10 µM) is reported as -2.006%. The CMS %inh in the test with CMS (CMS %inh, 10 µM) amounted to 1.896%. In the test on M07e (M07e %inh, 10 µM), the M07e %inh was -3.413%. The ML-2 %inh in the test with ML-2 (ML-2 %inh, 10 µM) is reported as 1.672%. Moreover, in the test on MOLM-13 (MOLM-13 %inh, 10 µM), the MOLM-13 %inh is reported as -0.1457%. For the same compound, in the test on MV4-11 (MV4-11 %inh, 10 µM), the MV4-11 %inh is on record as -0.8771%. Also, in the test with U937 (U937 %inh, 10 µM), the U937 %inh was 1.517%.
On to `Fc1ccc(-c2nc3n(c2-c2ccncc2)CCS3)cc1` [SJ000573131-1, RJA-12113-255 | U519/32/1 | SKF 86002], for which the CHRF288-11 %inh with CHRF288-11 is reported as -0.4036%. In the test on CMK, the CMK %inh stood at 1.491%. In the test on CMS, the CMS %inh was -0.311%. Besides, the M07e %inh in the test with M07e is on record as 0.008042%. Moreover, in the test with ML-2, the ML-2 %inh was found to be 0.01337%. Besides, in the test with MOLM-13, the MOLM-13 %inh was -3.313%. Moreover, the MV4-11 %inh in the test with MV4-11 is -2.292%. Moreover, the U937 %inh in the test with U937 is -2.013%.
In the case of `O=[N+]([O-])c1ccc(Oc2ccc(Br)cc2)c(C(O)P(=O)(O)O)c1` (single isomer, unassigned) [SJ000312207-2, RWJ-60475], the CHRF288-11 %inh in the test on CHRF288-11 (CHRF288-11 %inh, 10 µM) is recorded as 1.479%. The CMK %inh in the test on CMK (CMK %inh, 10 µM) is reported as 0.9236%. In the test on CMS (CMS %inh, 10 µM), the CMS %inh was determined as 0.5647%. Besides, the M07e %inh with M07e (M07e %inh, 10 µM) was -2.334%. For the same compound, the ML-2 %inh with ML-2 (ML-2 %inh, 10 µM) is 0.244%. Moreover, in the test with MOLM-13 (MOLM-13 %inh, 10 µM), the MOLM-13 %inh is recorded as 9.917%. For the same compound, the MV4-11 %inh in the test on MV4-11 (MV4-11 %inh, 10 µM) amounted to 4.34%. Moreover, the U937 %inh in the test with U937 (U937 %inh, 10 µM) was 1.53%.
With `C[C@@H]1CN(c2c(F)c(N)c3c(=O)c(C(=O)O)cn(C4CC4)c3c2F)C[C@H](C)N1` [SJ000556731-2, SPARFLOXACIN], the CHRF288-11 %inh in the test on CHRF288-11 (CHRF288-11 %inh, 10 µM) amounted to 0.9037%. Further, the CMK %inh in the test with CMK (CMK %inh, 10 µM) stood at 6.161%. Also, in the test with CMS (CMS %inh, 10 µM), the CMS %inh is recorded as -0.1151%. Besides, in the test with M07e (M07e %inh, 10 µM), the M07e %inh is reported as -2.464%. For the same compound, in the test with ML-2 (ML-2 %inh, 10 µM), the ML-2 %inh worked out at 2.462%. For the same compound, the MOLM-13 %inh with MOLM-13 (MOLM-13 %inh, 10 µM) came out at 6.829%. For the same compound, the MV4-11 %inh with MV4-11 (MV4-11 %inh, 10 µM) stood at 1.115%. Moreover, the U937 %inh in the test on U937 (U937 %inh, 10 µM) is 3.77%.
For the compound `CC(=O)OCC(=O)[C@@]12OC(C)(C)O[C@@H]1C[C@H]1[C@@H]3C[C@H](F)C4=CC(=O)C=C[C@]4(C)[C@@]3(F)[C@@H](O)C[C@@]12C` [SJ000285768-4, FLUOCINONIDE], in the test on CHRF288-11, the CHRF288-11 %inh came out at 0.7625%. Besides, the CMK %inh with CMK is 3.895%. Further, the CMS %inh with CMS is reported as 8.496%. For the same compound, the M07e %inh in the test with M07e was determined as 4.323%. The ML-2 %inh with ML-2 is 0.7594%. The MOLM-13 %inh in the test on MOLM-13 is listed as 6.203%. Further, in the test on MV4-11, the MV4-11 %inh is given as 1.473%. The U937 %inh in the test with U937 is on record as 4.65%.
As to `NC(=O)Cc1ccccc1Oc1nccc(-c2c(-c3ccc(F)cc3)ncn2C2CCNCC2)n1` [SJ000573021-1, JB27143-130B1], the CHRF288-11 %inh with CHRF288-11 is on record as 2.665%. The CMK %inh in the test with CMK is -8.193%. Also, the CMS %inh with CMS is recorded as 1.576%. Further, the M07e %inh in the test on M07e is -2.017%. Moreover, the ML-2 %inh in the test with ML-2 is on record as 0.1798%. Further, in the test on MOLM-13, the MOLM-13 %inh was -3.279%. In the test with MV4-11, the MV4-11 %inh is recorded as -0.3846%. Also, in the test on U937, the U937 %inh was -0.5311%.
As to `COc1ccc2cc1Oc1cc3c(cc1OC)CC[N+](C)(C)[C@H]3Cc1ccc(cc1)Oc1c(OC)c(OC)cc3c1[C@@H](C2)[N+](C)(C)CC3` [SJ000565179-1, METOCURINE IODIDE], in the test on CHRF288-11, the CHRF288-11 %inh is 0.972%. The CMK %inh with CMK was -2.411%. In addition, the CMS %inh in the test with CMS is listed as -2.545%. In the test on M07e, the M07e %inh was -0.367%. For the same compound, in the test on ML-2, the ML-2 %inh is given as -0.842%. Also, the MOLM-13 %inh with MOLM-13 was 0.1471%. Besides, the MV4-11 %inh in the test with MV4-11 came to 1.51%. In the test with U937, the U937 %inh is on record as -0.03863%.
